Experimental data reported in patent publication US20180179292A1, “RKIP AGONISM IN THE TREATMENT AND PREVENTION OF HEART FAILURE” (Leibniz-Institut für analytische Wissenschaften- ISAS-e.V., priority 2015, published 2018).
Marks after values point to notes of the source that are not given here.

What was measured:
Wt and RKIP-tg mice = assay: Left ventricular catheterization with esmolol infusion; format: in vivo, mouse
Experimental: For left ventricular pressure measurements we inserted a 1.4F pressure catheter (Millar Instruments) into the right carotid artery and advanced it to the left ventricular chamber. During measurement we injected esmolol (12 μg/min for 1 min) or dobutamine (in increasing doses: 75, 150, 375, 750 and 1500 ng/min) into the V. jugularis. We analyzed data using the Chart software (Chart5.4, AD Instruments) as previously described^60. We excluded mice with heart rates below 450 bpm (or below 430 bpm in the case of β1KO or RKIP-tg/β1KO mice).

RKIP [1] = assay: RKIP activation (Ser153 phosphorylation, pRKIP) in neonatal rat cardiomyocytes (Western blot); format: cell-based; conditions: NRCM, 25 and 75 μg/ml, 30 h
Experimental: NRCM were treated with rituximab (25 μg u. 75 μg/ml) or bevacizumab (25 μg u. 75 μg/ml) for 30 h and Western blot analysis performed. Gβ was used as loading control.
NRCM were treated with rituximab (25 μg u. 75 μg/ml) for 30 h and Western blot analysis and quantification using ImageJ was performed. Gβ was used as loading control. SEM, n=3, *, p=0.0004
NRCM were treated with rituximab (25 μg u. 75 μg/ml) for 30 h and Western blot analysis and quantification using ImageJ was performed. Gβ was used as loading control. SEM, n=4, *, p=0.0004
We homogenized left ventricular tissue or cells in lysis buffer (1% [v/v] Triton-X-100, 5 mM EDTA, 300 mM NaCl, 50 mM Tris [pH7.4], supplemented with protease and phosphatase inhibitors). We removed cell debris by centrifugation (10 min, 1000×g, 4° C.) and used lysates for Western blot analysis: We determined protein concentrations and used equal amounts of protein for immunoblot analysis. We separated proteins by SDS-PAGE and transferred them to PVDF membranes. […] To average our immunoblot experiments and to present semi-quantitative results, we quantified immunoblot signals using ImageJ. […]

RKIP [2] = assay: RKIP expression in neonatal rat cardiomyocytes (Western blot); format: cell-based; conditions: NRCM, 75 μg/ml, 30 h
Experimental: 500 000 NRCM/Well were plated in 12 Well plates, cultured for 24 h and subsequently treated with the indicated compounds for 30 h inkubiert. Cells were lysed, Western blots performed and signals were quantified using ImageJ (n=11). Shown are SEM; *. p=0.0003
We homogenized left ventricular tissue or cells in lysis buffer (1% [v/v] Triton-X-100, 5 mM EDTA, 300 mM NaCl, 50 mM Tris [pH7.4], supplemented with protease and phosphatase inhibitors). We removed cell debris by centrifugation (10 min, 1000×g, 4° C.) and used lysates for Western blot analysis: We determined protein concentrations and used equal amounts of protein for immunoblot analysis. We separated proteins by SDS-PAGE and transferred them to PVDF membranes. We blocked membranes for 1 h with 5% (w/v) fat-free milk dissolved in 10 mM Tris (pH7.6), 100 mM NaCl and 0.1% (v/v) Tween-20, incubated membranes with primary antibodies overnight at 4° C., thereafter with secondary antibodies conjugated with horseradish peroxidase (HRP) and used the Pierce™ ECL Plus Western blotting kit for detection. To average our immunoblot experiments and to present semi-quantitative results, we quantified immunoblot signals using ImageJ.
For the detection of RKIP phosphorylation (“activation as GRK2 inhibitor”), we used antibodies directed againt Ser153-phosphorylation of RKIP (pRKIP[hSer153], sc-32623, Santa Cruz Biotechnology; pRKIP [rSer153], sc-32622, Santa Cruz Biotechnology). For RKIP expression levels we used antibodies directed against RKIP (RKIP, sc5422, Santa Cruz Biotechnology; RKIP antibodies raised against recombinant GST-RKIP as antigen (Lorenz et al., 2003).
We tested an anti-CD20 antibody (such as rituximab) and an anti-VEGF antibody (such as bevacizumab) and several other therapeutic antibodies (obtained from the hospital pharmacy, Uniklinik Wiirzburg) on RKIP expression and RKIP activation (Ser153 phosphorylation) in neonatal rat cardiomyocytes as well as cardiomyocyte contractility.

[3] = test system: neonatal rat cardiomyocytes (NRCM); assay: Contractile activity of neonatal rat cardiomyocytes; format: cell-based; conditions: in the presence of isoprenaline (50 nM), 33° C., beats per minute
Experimental: NRCM were cultured for 24 h and transduced as indicated with a control virus (LacZ) or a virus encoding RKIP-wt and/or treated with rituximab as indicated. The spontaneous contractions were measured at 33° C. for one minute and normalized for each experiment to LacZ under unstimulated conditions. NRCM were then stimulated with isoproterenol (50 nM) and after 2 min contractions were counted again. SEM; *, p<0.0001, n=5
Neonatal rat cardiomyocytes were isolated as described (Lorenz et al. Nature 2003, 426:574-579; Vidal et al., Cardiovasc. Res. 2012, 96:255-264). Cardiomyocytes were transduced by adenoviruses or treated with indicated antibodies. To monitor the contractile activity of cardiomyocytes, live cells were examined on a Zeiss Axiovert 135 microscope.

[4] = test system: RyR2, PLN and TnI phosphorylation; assay: Isoproterenol infusion with or without ICI 118,551, immunoblot of heart lysates; format: in vivo, mouse
Source text: Immunoblot quantification of (a) pPLN(S16), (b) pTnI (SS23/24), (c) pRyR2(S2808) and pRyR2(S2814) in heart lysates of untreated (Con) and isoproterenol-treated mice and mice treated with Iso in combination with ICI 118,551. pPLN(S16), n=13; pTnI(SS23/24), n=11; pRyR2(S2808), n=12; n are mice per group; mean±SEM; *, p<0.05 vs. Con. Immunoblot analysis of Con vs. Iso for RyR2 phosphorylation (pRyR2[S2808] and pRyR2[S2814]) show significant differences when a t-test analysis is applied (#, p<0.05 vs. Con).
We intravenously infused isoproterenol (1.1 μg/min for 2 min) with or without ICI 118,551 (0.14 μg/min for 2 min) via the V. jugularis as indicated. We pretreated mice with pertussis toxin (PTX; 300 μg/kg body weight; i.p) for 24 h as indicated. Mice were sacrificed and hearts were used for Western blot analyses. Efficiency of Gαi inhibition by PTX was evaluated by in vitro PTX-catalyzed ADP ribosylation in the presence of [^32P]-nicotinamide adenine dinucleotide ([^32P]NAD). […] After filtration through a 200 μm-mesh, we determined the protein content of the tissue homogenate and then incubated 30 μg of protein with 0.1 μM [^32P]NAD (800 Ci/mmol) in a buffer containing 20 mM Tris-HCl (pH7.6), 15 mM thymidine, 1 mM EDTA, 1 mM ATP, 0.1 mM GDP and 1 μg of PTX (preactivated) for 1 h at 30° C. […] Proteins were separated on SDS-PAGE and incorporated [^32P] was assessed by Phospholmager analysis. […]

Wt mice = assay: Chronic isoproterenol infusion via osmotic minipumps in Wt mice (echocardiography, interstitial fibrosis); format: in vivo, mouse; conditions: mean ± SEM
Experimental: (§1) Echocardiographic measurements and histological analysis of interstitial fibrosis of wild-type (Wt) and RKIP transgenic (RKIP-tg) mice before and after 4 weeks of isoproterenol application via osmotic minipumps (Iso; 30 mg/kg/d). Shown are measurements of wall thicknesses (interventricular septal [IVS] and left ventricular posterior wall [LVPW]), left ventricular internal dimension (LVID), fractional shortening (FS), ejection fraction (EF), heart rates and the quantification of interstitial fibrosis (arbitrary units) of Sirius Red-stained left ventricular myocyrdial sections. Values represent mean (±SEM); *, p<0.05 vs. Con; #, p<0.05 vs. Wt Iso; $, p<0.05 vs. Wt Con. n represent the number of mice (for the analysis of interstitial fibrosis one transverse section was analyzed per mouse).
(§2) Osmotic minipumps (Alzet, model 1004) were implanted subcutaneously in male 8-week old Wt and RKIP-tg mice (C57/BL/6J background). The implanted pumps continuously released isoproterenol for 4 weeks (30 mg/kg body weight/day).
(§3) We performed transthoracic echocardiograms in a blinded manner using the Vevo700 or Vevo2100 high-resolution imaging systems (VisualSonics) and a 30-MHz probe. We obtained values for end-diastolic septal and posterior wall thicknesses as well as end-diastolic and -systolic internal diameters from 2D M-mode images in the short axis view at the proximal level of the papillary muscles. We obtained peak blood flow velocities at the site of TAC [Vmax (millimetres per second)] from pulsed-waved Doppler measurements. We calculated fractional shortening (FS), ejection fraction (EF), and aortic pressure gradients (mmHg) by VisualSonics Cardiac Measurements software. The shown data represent averages of at least six cardiac cycles per animal. We excluded mice with heart rates below 450 bpm (or below 430 bpm in the case of β1KO or RKIP-tg/(β1KO mice).
(§4) After fixation of hearts in 4% (m/v) paraformaldehyde, hearts were embedded in paraffin. Sections (2 μm) were stained with haematoxylin and eosin or with Sirius Red as described previously^60. For quantification of fibrosis, we stained left ventricular sections with Sirius Red and subsequently analyzed […] by semi-automated image analyses in blinded manner. For immunostaining, we used Vectastain Elite ABC Reagent with biotinylated goat-anti-rabbit IgG in combination with diaminobenzidine (DAB) and glucose oxidase (Sigma) similarly as described previously^60,61. We counterstained nuclei with haematoxylin.

RKIP-tg mice = assay: Chronic isoproterenol infusion via osmotic minipumps in RKIP-tg mice (echocardiography, interstitial fibrosis); format: in vivo, mouse; conditions: mean ± SEM
Experimental: as §1, §2, §3, §4

[5] = 4 weeks isoproterenol 30 mg/kg/d via osmotic minipumps
[6] = 4 weeks isoproterenol 30 mg/kg/d, Sirius Red-stained left ventricular sections

In the case of `COC(=O)CCc1ccc(OCC(O)CNC(C)C)cc1` (stereo not drawn) [Esmolol, esmolol], the “rates of contraction and relaxation (dP/dtmax, dP/dtmin)” value (Wt and RKIP-tg mice; esmolol 12 μg/min for 1 min, RKIP-tg mice) is reported as “largely attenuated increased rates of contraction and relaxation” and the heart rates (Wt and RKIP-tg mice; esmolol 12 μg/min for 1 min into V. jugularis, Wt and RKIP-tg mice) is reported as “effectively reduced heart rates”.
For rituximab: anti-CD20 antibody, the “"active" RKIP (Ser153-phosphorylation)” value (RKIP [1]) was “increased”, the RKIP expression (RKIP [2]) was “even more prominent up-regulation of RKIP” and the NRCM contractility [3] was “increased NRCM contractility”.
For panitumumab: anti-EGFR antibody, the RKIP expression (RKIP [2]) was “up-regulation of RKIP expression”.
With `Cc1ccc(OCC(O)C(C)NC(C)C)c2c1CCC2` (stereo not drawn) [ICI 118,551] the “RyR2(S2808/S2814) phosphorylation” value ([4]; isoproterenol plus ICI 118,551 (0.14 μg/min for 2 min i.v.) vs. isoproterenol alone) was “much stronger phosphorylation of RyR2” and the “PLN and TnI phosphorylation” value ([4]; isoproterenol plus ICI 118,551 vs. isoproterenol alone) was “hardly affected PLN and TnI phosphorylation”.
`CC(C)NCC(O)c1ccc(O)c(O)c1` (stereo not drawn) [Iso, isoproterenol] was tested, and the EF (Wt mice; [5]) was 73.0 ± 2.52^$ %, the FS (Wt mice; [5]) was 41.6 ± 2.00^$ % of LVID and the Heart rate (Wt mice; [5]) was 654 ± 25* bpm. The “IVS, end-diastolic” value (Wt mice; [5]) was 0.74 ± 0.039* mm, the “LVID, end-diastolic” value (Wt mice; [5]) was 3.69 ± 0.172 mm and the “LVPW, end-diastolic” value (Wt mice; [5]) was 0.76 ± 0.036* mm. The Interstitial fibrosis (Wt mice; [6]) was 2.05 ± 0.336* arbitrary units, the EF (RKIP-tg mice; [5]) was 87.1 ± 1.64*^# % and the FS (RKIP-tg mice; [5]) was 55.9 ± 1.98*^# % of LVID. The Heart rate (RKIP-tg mice; [5]) was 668 ± 21* bpm, the “IVS, end-diastolic” value (RKIP-tg mice; [5]) was 0.81 ± 0.026* mm and the “LVID, end-diastolic” value (RKIP-tg mice; [5]) was 3.08 ± 0.086 mm. For the same molecule, the “LVPW, end-diastolic” value (RKIP-tg mice; [5]) was 0.84 ± 0.022* mm and the Interstitial fibrosis (RKIP-tg mice; [6]) was 1.05 ± 0.263*^# arbitrary units.
For “bevacizumab: anti-VEGF antibody, recombinant humanized monoclonal IgG1”, the “"active" RKIP (Ser153-phosphorylation)” value (RKIP [1]) was “increased” and the RKIP expression (RKIP [2]) was “most up-regulation of RKIP expression”.
